Test results as given in patent US12728137B2, “Methods of treating cancer with a combination of mithramycin and immunotherapy” (University of South Florida, priority 2019, dated 2026).

Test system: CT26 cells
Experiment: CT26 cell viability with TGFβI and/or Mit-A (CellTiter-Glo)
Type: cell-based, mouse
Settings: LY2109761 (5 μM) and/or 150 nM Mit-A for 48 hrs; FIG. 9
Experimental: FIG. 9 depicts a bar graph of cell viability assayed by CellTiter-Glo of CT26 cells that were cultured in the presence of TGFβI, LY2109761 (5 μM) and/or 150 nM Mit-A for 48 hrs.
Mit-A potentiates the inhibitory effects of transforming growth factor β (TGFβ): TGFβ activated stroma is one of the defining features of MSS CRCs^33. […] However, inhibition of TGFβ in these tumors induced a potent anti-tumor response. Since Sp1 is implicated in TGFβ induced tumor invasion, whether inhibition of TGFβ signaling will promote sensitization of CT26 cells to Mit-A was examined.

Compound: c1ccc(-c2nn3c(c2-c2ccnc4cc(OCCN5CCOCC5)ccc24)CCC3)nc1 [LY2109761]
- CT26 cell viability: did not inhibit
